Results taken from patent publication US20130045985A1, “N-(5-FLUORO-2-((4-METHYLBENZYL)OXY)PYRIMIDIN-4-YL)BENZAMIDE DERIVATIVES” (Dow AgroSciences LLC, priority 2011, published 2013).

Columns and labels:
[1] = system: Mycosphaerella graminicola; Anamorph: Septoria tritici; Bayer Code SEPTTR; assay: Fungicidal activity: leaf blotch of wheat (SEPTTR), one-day protectant and three-day curative; format: in vivo, Septoria tritici on wheat plants (variety Yuma); conditions: wheat plants, rating of % disease control
Experimental: Evaluation of Fungicidal Activity: Leaf Blotch of Wheat (Mycosphaerella graminicola; Anamorph: Septoria tritici; Bayer Code SEPTTR)
Wheat plants (variety Yuma) were grown from seed in a greenhouse in 50% mineral soil/50% soil-less Metro mix until the first leaf was fully emerged, with 7-10 seedlings per pot. These plants were inoculated with an aqueous spore suspension of Septoria tritici either prior to or after fungicide treatments. After inoculation the plants were kept in 100% relative humidity (one day in a dark dew chamber followed by two to three days in a lighted dew chamber) to permit spores to germinate and infect the leaf. The plants were then transferred to a greenhouse for disease to develop.
The following table presents the activity of typical compounds of the present disclosure when evaluated in these experiments. The effectiveness of the test compounds in controlling disease was determined by assessing the severity of disease on treated plants, then converting the severity to percent control based on the level of disease on untreated, inoculated plants.
In each case of Table I the rating scale is as follows: […]

Cc1ccc(COc2ncc(F)c(NC(=O)c3ccccc3)n2)cc1 [Cmpd 1, N-(5-fluoro-2-(4-methylbenzyloxy)pyrimidin-4-yl)benzamide]
melting point: 93 to 95 °C
SEPTTR 100 PPM 1DP ([1]; One-Day Protectant (1DP)): B (51-75)
SEPTTR 100 PPM 3DC ([1]; Three-Day Curative (3DC)): A (76-100)
